# Laboratory results reported in ChEMBL document CHEMBL1126548, “Methoxylation of cocaine reduces binding affinity and produces compounds of differential binding and dopamine uptake inhibitory activity: discovery of a weak cocaine "antagonist"” (J Med Chem, 1993).
# pIC50, pKi: −log10 of the molar value.
# How the values were obtained:
# Rattus norvegicus [1] = species on record: Rattus norvegicus; experiment: Compound tested for inhibitory activity against [3H]dopamine uptake in synaptosomes from rat caudate nucleus; set-up: species or system Brain
# Rattus norvegicus [2] = species on record: Rattus norvegicus; experiment: Effect on cocaine inhibition of [3H]dopamine uptake at 200 uM
# Rattus norvegicus [3] = species on record: Rattus norvegicus; experiment: Effect on cocaine inhibition of [3H]dopamine uptake at 50 uM
# Rattus norvegicus [4] = species on record: Rattus norvegicus; experiment: Binding affinity against [3H]mazindol
# Rattus norvegicus [5] = species on record: Rattus norvegicus; experiment: Effect on cocaine inhibition of [3H]-dopamine uptake at 500 uM
# Rattus norvegicus [6] = species on record: Rattus norvegicus; experiment: Effect on cocaine inhibition of [3H]dopamine uptake
Compound,pKi (Rattus norvegicus [1]),pIC50 (Rattus norvegicus [2]),pIC50 (Rattus norvegicus [3]),pKi (Rattus norvegicus [4]),pIC50 (Rattus norvegicus [5]),pIC50 (Rattus norvegicus [6])
COC(=O)[C@H]1C2[C@@H](OC)C[C@H](C[C@@H]1OC(=O)c1ccccc1)N2C (mixture of isomers),3.70,6.03,6.30,4.27,,
COC(=O)[C@@H]1C2C[C@H](OC)[C@H](C[C@@H]1OC(=O)c1ccccc1)N2C (mixture of isomers),4.17,,,4.01,,
COC(=O)[C@H]1C2C[C@H](OC)[C@H](C[C@@H]1OC(=O)c1ccccc1)N2C (mixture of isomers),3.29,,,3.72,5.99,
COC(=O)[C@H]1C2CCC(C[C@@H]1OC(=O)c1ccccc1)N2 (stereo partly drawn) [PSEUDOCOCAINE],4.86,,,4.98,,
COC(=O)[C@H]1C2[C@H](OC)C[C@H](C[C@@H]1OC(=O)c1ccccc1)N2C (mixture of isomers),3.96,,,4.35,,
COC(=O)[C@@H]1C2[C@H](OC)C[C@H](C[C@@H]1OC(=O)c1ccccc1)N2C (mixture of isomers),5.21,,,5.38,,
COC(=O)[C@H]1[C@@H](OC(=O)c2ccccc2)C[C@@H]2CC[C@H]1N2C [COCAINE],6.49,,,6.55,,6.47
